Experimental data: US5756301A, “Endogenous taxol-like substance in human serum, monoclonal antibodies directed thereto and methods of assaying therefor” (The Trustees of Columbia University in the City of New York, priority 1993, dated 1998)
“Also recorded” adds a separate entry of the source. Read-outs that look alike come from different tables or passages of the source.

Legend:
[1] = test system: rabbit anti-taxol antiserum; assay: RIA: inhibition of binding of rabbit anti-taxol antiserum to [3H]taxol; conditions: for Affinity of rabbit antibodies (in words): [3H]taxol
Procedure: (§1) Bound ligand was separated from free by the addition of 100 ul of a 2.5% dextran-coated charcoal solution in RIA buffer, incubation for 3 min at 4° C. and centrifugation in an Eppendorf centrifuge for 2 min.

KB cells = conditions: cited from earlier work
29B7B3C = assay: Competitive ELISA, inhibition of binding of 29B7B3C to taxol-RSA; parameters: species or system mouse
Procedure: (§2) Spleen cells were fused with nonsecreting myeloma cells P3 ×63-Ag8.653 (13), according to the method of Sharon et al. (14). […] Clones positive by competitive ELISA were subcloned twice by limiting dilution. Ascites were obtained by injecting 10^6 to 10^7 cells i.p. into BALB/c mice that had been primed with IFA i.p. 5 days before.
(§3) The wells were washed with PBS-T-20 three times and blocked with 200 ul of PBS, containing 1% fetal calf serum, for 1 hour at 37° C. […] After washing four times with PBS-T-20, bound antibodies were detected with 100 ul of 1/3000 dilution of peroxidase-labeled goat anti-mouse IgG+IgM in PBS-T-20 for 1 hour at 37° C. Color was developed and absorbance was measured as described above.

69E4A8E = assay: Competitive ELISA, inhibition of binding of 69E4A8E to taxol-RSA; parameters: species or system mouse
Procedure: as §2, §3

microtubules / tubulin = conditions: cited from earlier work
tumor = conditions: cited from earlier work
[2] = test system: ovarian and breast cancer and melanoma; conditions: clinical trials; cited from earlier work
[3] = test system: antibodies specific for taxol (one rabbit antiserum and two monoclonal antibodies); assay: Binding to all of the antibodies (rabbit antiserum, 69E4A8E, 29B7B3C); parameters: species or system rabbit; mouse; conditions: 69E4A8E and 29B7B3C
Procedure: Polystyrene microplates were coated with 100 ul of taxol-RSA (250ng/ml) in 0.1 M sodium bicarbonate, pH=9.3, overnight at 4° C. The wells were washed with PBS-T-20 three times and blocked with 200 ul of PBS, containing 1% fetal calf serum, for 1 hour at 37° C. […] After washing four times with PBS-T-20, bound antibodies were detected with 100 ul of 1/3000 dilution of peroxidase-labeled goat anti-mouse IgG+IgM in PBS-T-20 for 1 hour at 37° C. Color was developed and absorbance was measured as described above.
as §1

[4] = clinical trials; cited from earlier work
[5] = read-out: Peak taxol level in plasma; 200 to 250 mg/m^2 infusion over 24 hours; cited from earlier work
[6] = relative to taxol = 1, data from reference 10

For `CC(=O)O[C@H]1C(=O)[C@@]2(C)[C@H]([C@H](OC(=O)c3ccccc3)[C@]3(O)C[C@H](O)C(C)=C1C3(C)C)[C@]1(OC(C)=O)CO[C@@H]1C[C@@H]2O` [Baccatin III, baccatin III], the “Affinity lower than taxol (orders of magnitude)” value [1] is given as “about 3 orders of magnitude” and the “Relative IC50, cytotoxicity (KB cells)” value (KB cells; human) is given as 1,700.

In the case of `CC(=O)O[C@@]12CO[C@@H]1C[C@H](O)[C@@]1(C)C(=O)[C@H](O)C3=C(C)[C@@H](OC(=O)[C@H](O)[C@@H](NC(=O)OC(C)(C)C)c4ccccc4)C[C@@](O)([C@@H](OC(=O)c4ccccc4)[C@H]21)C3(C)C` [Taxotere], the “Binding affinity of 29B7B3C (in words)” value (29B7B3C; competitive ELISA) is reported as “binds taxotere as well as it does taxol”, the “Affinity of rabbit antibodies (in words)” value ([1]; RIA) is reported as “inability of the rabbit serum and 69E4A8E to recognize taxotere” and the “Affinity lower than taxol (fold)” value ([1]; RIA, lower affinity than taxol) is reported as 100 fold. For the same compound, the “Binding affinity / recognition by 69E4A8E (in words)” value (shortened to “Binding affinity / recognition”) (69E4A8E; competitive ELISA) was “recognized poorly; also recorded: inability of the rabbit serum and 69E4A8E to recognize taxotere”.

In the case of `COc1cc([C@@H]2c3cc4c(cc3[C@H](O)[C@H]3COC(=O)[C@H]23)OCO4)cc(OC)c1OC` [podophyllotoxin], the “Effect on microtubule assembly / tubulin polymerization” value (microtubules / tubulin) is listed as “inhibit tubulin polymerization”.

In the case of `C/C=C(\C)C(=O)N[C@@H](c1ccccc1)[C@@H](O)C(=O)O[C@H]1C[C@@]2(O)[C@@H](OC(=O)c3ccccc3)[C@@H]3[C@]4(OC(C)=O)CO[C@@H]4C[C@H](O)[C@@]3(C)C(=O)[C@H](OC(C)=O)C(=C1C)C2(C)C` [Cephalomannine, cephalomannine], the “Binding affinity of 29B7B3C (in words)” value (29B7B3C; competitive ELISA) is given as “higher binding affinities”, the “Affinity of rabbit antibodies (in words)” value ([1]; RIA) is given as “almost equal affinity” and the “Relative IC50, cytotoxicity (KB cells)” value (KB cells; [6]) is given as 3.2.

In the case of `CC(=O)OC[C@@]1(O)[C@H]2[C@H](OC(=O)c3ccccc3)[C@]3(O)C[C@H](OC(=O)[C@H](O)[C@@H](NC(=O)c4ccccc4)c4ccccc4)C(C)=C([C@@H](OC(C)=O)C(=O)[C@]2(C)[C@@H](O)C[C@@H]1O)C3(C)C` [20-acetoxy-4-deacetyl-5-epi-20,0-secotaxol], the “Affinity lower than taxol (orders of magnitude)” value ([1]; RIA, lower than taxol) is listed as “about 3 orders of magnitude” and the “Relative IC50, cytotoxicity (KB cells)” value (KB cells; [6]) is listed as > 100,000.

In the case of `CC[C@]1(O)C[C@@H]2CN(CCc3c([nH]c4ccccc34)[C@@](C(=O)OC)(c3cc4c(cc3OC)N(C)[C@H]3[C@@](O)(C(=O)OC)[C@H](OC(C)=O)[C@]5(CC)C=CCN6CC[C@]43[C@@H]65)C2)C1` [vinblastine], the “Effect on microtubule assembly / tubulin polymerization” value (microtubules / tubulin) is given as “inhibit tubulin polymerization”.

With `CC(=O)O[C@H]1C(=O)[C@]2(C)[C@H](O)C[C@H]3OC[C@@]3(OC(C)=O)[C@H]2[C@H](OC(=O)c2ccccc2)[C@]2(O)C[C@H](OC(=O)[C@H](O)[C@@H](NC(=O)c3ccccc3)c3ccccc3)C(C)=C1C2(C)C` [7-Epitaxol, 7-epitaxol] the “Binding affinity of 29B7B3C (in words)” value (29B7B3C; competitive ELISA) was “higher binding affinities” and the “Binding affinity / recognition” value (69E4A8E; competitive ELISA) was “higher binding affinities”.

In the case of `CC(=O)O[C@@]12CO[C@@H]1C[C@H](O)[C@@]1(C)C(=O)[C@H](O)C3=C(C)[C@@H](O)C[C@@](O)([C@@H](OC(=O)c4ccccc4)[C@H]21)C3(C)C` [10-deacetylbaccatin III], the “Relative IC50, cytotoxicity (KB cells)” value (KB cells; human) is given as 400.

In the case of `CC[Si](CC)(CC)O[C@@H](C(=O)O[C@H]1C[C@@]2(O)[C@@H](OC(=O)c3ccccc3)[C@@H]3[C@]4(OC(C)=O)CO[C@@H]4C[C@H](O)[C@@]3(C)C(=O)[C@H](OC(C)=O)C(=C1C)C2(C)C)[C@@H](NC(=O)c1ccccc1)c1ccccc1` [2'-(Triethylsiyl) taxol, 2'-(triethylsilyl)taxol], the “Relative IC50, cytotoxicity (KB cells)” value (KB cells; human) is given as 30,000.

For `CC(=O)O[C@H]1C(=O)[C@@]2(C)[C@H]([C@H](OC(=O)c3ccccc3)[C@]3(O)C[C@H](OC(=O)[C@H](O)[C@@H](NC(=O)c4ccccc4)c4ccccc4)C(C)=C1C3(C)C)[C@]1(OC(C)=O)CO[C@@H]1C[C@@H]2O` [Taxol], the “Binding affinity of 29B7B3C (in words)” value (29B7B3C) is listed as “higher binding affinities”, the IC50 (29B7B3C; ELISA, 29B7B3C) is listed as about 100 nM and the Antitumor activity (tumor) is listed as “shown to have antitumor activity”. For the same compound, the “Effect on microtubule assembly / tubulin polymerization” value (microtubules / tubulin) was “promote and stabilize microtubule assembly and inhibit disassembly to tubulin”, the Clinical efficacy [2] was “affective in the treatment of ovarian (5, 6) and breast cancer (7) and melanoma (8)” and the “Affinity of rabbit antibodies (in words)” value ([1]; RIA) was “almost equal affinity”. The “Binding affinity / recognition” value (69E4A8E) was “higher binding affinities”, the IC50 (69E4A8E; ELISA, 69E4A8E) was about 100 nM and the “Binding by all antibodies (in words)” value [3] was “bind taxol and active derivatives well”. The Side effects [4] was “neutropenia, hypersensitivity reactions mucositis, neurological and possible cardiac toxicity” and the Cmax [5] was over 600 nM.
